Experimental data: paper PMC8571951, “An activity‐based bioprobe differentiates a novel small molecule inhibitor from a LOXL2 antibody and provides renewed promise for anti‐fibrotic therapeutic strategies” (Clinical and Translational Medicine, 2021)

Molecular target: T1, LOXL2 (Homo sapiens, UniProt Q9Y4K0)
T1 sequence (Q9Y4K0 26-774): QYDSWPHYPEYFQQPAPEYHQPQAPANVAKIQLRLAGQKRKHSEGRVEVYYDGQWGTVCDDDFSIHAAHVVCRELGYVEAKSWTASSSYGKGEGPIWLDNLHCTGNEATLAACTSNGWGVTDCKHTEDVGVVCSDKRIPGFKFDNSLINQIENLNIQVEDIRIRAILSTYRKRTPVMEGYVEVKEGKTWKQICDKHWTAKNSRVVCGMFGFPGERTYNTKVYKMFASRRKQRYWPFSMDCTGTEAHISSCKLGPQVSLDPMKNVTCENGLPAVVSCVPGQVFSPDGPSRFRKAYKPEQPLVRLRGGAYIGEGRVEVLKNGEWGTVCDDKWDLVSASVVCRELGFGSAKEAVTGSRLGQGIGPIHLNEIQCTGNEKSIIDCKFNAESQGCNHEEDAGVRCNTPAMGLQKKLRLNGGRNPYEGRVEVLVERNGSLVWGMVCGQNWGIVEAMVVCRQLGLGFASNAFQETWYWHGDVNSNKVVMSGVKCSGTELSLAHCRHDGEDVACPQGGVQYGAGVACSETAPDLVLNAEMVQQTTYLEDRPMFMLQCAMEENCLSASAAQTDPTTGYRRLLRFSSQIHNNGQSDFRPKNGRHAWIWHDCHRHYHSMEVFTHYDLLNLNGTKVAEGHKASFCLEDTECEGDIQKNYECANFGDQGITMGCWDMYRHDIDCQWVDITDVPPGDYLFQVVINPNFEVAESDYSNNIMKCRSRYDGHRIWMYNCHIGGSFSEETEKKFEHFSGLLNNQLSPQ
Test: Standard Amplex Red assay, rh LOXL2 (putrescine substrate)
Format: biochemical
Settings: for IC50: Amplex Red assay, 30 min pre-incubation
Description: FIGURE 1 Characteristics of the activity‐based probe (ABP) PXS‐5878. (A) Chemical structure of PXS‐5878, with functional subunits denoted with different colours. The fluoroallylamine moiety (blue) was designed to interact with the lysine tyrosylquinone (LTQ) co‐factor within the lysyl oxidase active sites. An extended linker (green) was incorporated to provide optimal separation between the reactive functional group and the tag, avoiding unfavourable steric hindrance. Biotin was selected as a tag, with higher sensitivity found to be achieved using a double tag (red), resulting in PXS‐5878 as the preferred ABP. (B) Concentration‐dependent inhibition of recombinant human (rh) lysyl oxidase‐like 1‐4 (LOXL1‐4) and native bovine LOX in a standard Amplex Red assay with 30 min pre‐incubation; n = 3–4 independent experiments, standard error of mean (SEM). Native bovine LOX was used as a surrogate for human LOX as both enzymes have similar pharmacology for fluoroallylamines.[2], [9] (C) Irreversible nature of PXS‐5878 enzyme inhibition confirmed using a jump dilution assay. Enzyme (rh LOXL1, rh LOXL2 or LOXL3) was pre‐incubated with 10 × IC50 of PXS‐5878 for 30 min, then diluted 100x and remaining activity assessed by Amplex Red assay. […] Each value is an average of three experiments. (D) Schematic representation of the assay development to detect lysyl oxidase activity by PXS‐5878 using a direct enzyme‐linked assay with lysyl oxidases as the target analyte. HRP: horseradish peroxidase; TMB: 3,3′,5,5′‐tetramethylbenzidine, a chromogenic substrate. After target analyte is bound to the plate, PXS‐5878 was incubated for 60 min in the presence or absence of a pan‐LOX inhibitor (β‐aminopropionitrile, [BAPN]) and streptavidin‐HRP is then added. After incubation the plate is washed and TMB added to measure the amount of bound ABP/streptavidin/HRP. This leads to a high signal. Application of BAPN to block the enzymatic site prevents PXS‐5878 from binding, and it is consequently washed off the plate, resulting in a low signal. In the final Simoa® assay, the enzyme is bound by the antibody to the bead. (E) Detection of enzymatically active lysyl oxidases by PXS‐5878. rh LOXL1, LOXL2 or LOXL3 were immobilised on the surface of a microtiter plate and processed as described in (D). Optical density in the absence of the pan‐LOX inhibitor BAPN (high signal) was divided by the value in the presence of BAPN (low signal). Low signal was 1.81 ± 0.77 (n = 8) times larger than blank controls. Two independent replicates were performed (total n = 4–5 for each enzyme).
Small molecule, selective LOXL2 (PXS‐5338, Figure S3) or pan‐LOX inhibitors compete with substrate but ultimately occupy the enzymatic pocket, irrespective of whether the substrate is small (e.g., putrescine) or large (e.g., collagen). […] Further studies with AB0023 were therefore limited to 300 nM.
FIGURE 2 Characteristics of PXS‐5338 and inhibition of lysyl oxidase‐like 2 (LOXL2) enzymatic activity in vitro and in vivo. (A) Chemical structure of PXS‐5338. […] (B) Tissue levels of PXS‐5338 measured 1 and 4 h after a single oral dose of 30 mg/kg in the rat. […] Average data from three different animals. (C) Concentration‐dependent inhibition of native human LOX and rh LOXL1‐4 in a standard Amplex Red assay with 30 min pre‐incubation; n ≥3 independent experiments, standard error of mean (SEM). (D) PXS‐5338 inhibits rh LOXL2 in a time‐dependent manner, with increasing potency observed upon longer incubation with the enzyme. […]

Change of potency with increasing substrate (putrescine) concentration (substrate added simultaneously with inhibitor)	IC50 [µM]	Concentration at which full inhibition of rh LOXL2 is achieved (standard assay using putrescine or collagen as substrate)	Pre-incubation time after which inhibition of rh LOXL2 is complete (varying pre-incubation times, putrescine as substrate) [h]	Compound
potency of PXS-5338 decreases				CC(C)c1c(Cc2ccc(S(C)(=O)=O)nc2)c2ncccc2n1C/C(F)=C/CN [PXS-5338]
	0.203			NC/C=C(\F)CS(=O)(=O)c1cccc(Cn2cc(-c3cc(OCCCc4cn(CCCCC[C@@H]5SC[C@@H]6NC(=O)N[C@@H]65)nn4)cc(OCCCc4cn(CCCCC[C@@H]5SC[C@@H]6NC(=O)N[C@@H]65)nn4)c3)nn2)c1 [PXS-5878]
	0.035	above 300 nM	2	CC(C)c1c(Cc2ccc(S(C)(=O)=O)nc2)c2ncccc2n1C/C(F)=C/CN [PXS‐5338]
